Reference: US20160113904A1, “SKIN CARE PRODUCTS COMPRISING SUBSTITUTED HYDROXYPROLINE WITH UNSATURATED FATTY ACIDS DERIVATIVES” (MEDWELL LABORATORIES LTD., priority 2013, published 2016)
“Also recorded” adds a separate entry of the source.

What was measured:
Type in all cases: in vivo, human
[1] = tested on: volunteers with Atopic dermatitis; assay: Atopic dermatitis trial: study director's evaluation of skin condition
Experimental: (§1) In Examples 1-3 an emulsion type O/W Creams of MWL-001 (2.5% and 5% w/w) was prepared using Emulgade® SE emulsifiers (glyceryl stearate), Ceteareth-20, cetearyl alcohol, cetyl palmitate, cetearyl alcohol-Lanette®, isopropyl myristate, caprilic/capric acid triglycerides (Myritol®318), strearic acid, a Trietanolamine and purified water, according to Ph Eur 6.0.
(§2) Ten volunteers aged 2-30 years participated in the trial. Four females and six males.
(§3) Volunteers were instructed to apply the product only on one side of the body, on the worst affected area, while the other side was defined as the control area and was not treated. The tested material, a body lotion product, was applied 1-3 times a day for a period of 4 weeks.
Each volunteer was examined at baseline (T0), after one week (T1) and after 2 weeks of using the product (T2). The investigator rated the condition of the skin according to the parameters of the size of the affected area, dryness, scale, redness, edema, lichenification and pruritus. Both the treated and the Control areas were documented with color photographs at T0, T1 and T2.
The following parameters were evaluated: • a. Lesion area • b. Dryness • c. Scales • d. Redness • e. Edema • f. Lichenificalion
The parameters mentioned above were evaluated on a scale of 0 to 5 by the study director. • 0=None • 1=Slight • 2=Moderate • 3=Severe • 4=Extreme • 5=Very Extreme
(§4) A statistical comparison between T0 and the other two time-points (T1 and T2) and between the treated and the Control areas were made according to the Wilcoxon signed-ranks test, while p<0.05 indicated a significant difference
All parameters were assessed in a scale of 0-5 where 0=none and 5=very extreme. The percentage of change was calculated at T1 and T2.

[2] = tested on: volunteers with Atopic dermatitis; assay: Atopic dermatitis trial: subjective pruritus intensity; conditions: for Change in Pruritus level / Pruritus level: treated area; for Pruritus level: scale 0-5
From the text: as §2, §3
The volunteers were asked to assess the pruritus intensity on a 0-5 scale at T0, T1 and T2. • 0=None • 1=Slight • 2=Moderate • 3=Severe • 4=Extreme • 5=Very Extreme
as §4

[3] = tested on: volunteers with psoriasis; assay: Psoriasis trial: study director's evaluation of lesions; conditions: for Redness level / Scale level / Thickness of the Skin / Infected area size: treated area
Experimental: as §1
(§5) Fifteen volunteers aged 29-73 with psoriasis.
The volunteers were instructed to use the cream at least once a day, for 4 weeks.
(§6) Volunteers were instructed to apply the product only on one side of the body, on the worst affected area at least once a day, for 4 weeks, while the other side was defined as the control area and was not treated.
Each volunteer was examined at baseline (T0), after two weeks (T1) and after 4 weeks of using the product (T2). The study Director rated the state of the skin according to the parameters of scales severity, thickness of the plaque, redness and the size of the lesions. Erythema level was documented at each time point.
The following parameters were evaluated:
a) Size of lesion b) Thickness of lesion
The parameters mentioned above were evaluated on a scale of 0 to 5 by the study director.
(§7) A statistical comparison between T0 and the other two time-points (T1 and T2) and between the treated and the Control areas were made by paired sample t-test, while p<0.05 indicated a significant difference
The results of 15 volunteers at each time point are presented in the Tables below and in the relevant Figures. All parameters were assessed in a scale of 0-5 where 0=none and 5=very extreme

[4] = tested on: volunteers with psoriasis; assay: Psoriasis trial: subjective pruritus level; conditions: for Pruritus level: treated area, scale 0-5
From the text: as §5, §6
The volunteers were asked to assess the pruritus level on a 0-5 scale at T0, T1 and T2.
as §7

[5] = tested on: volunteers with psoriasis; assay: Psoriasis trial: side effects; conditions: topical use for 4 weeks
From the text: The participants were asked to keep a record of daily applications and to note any side effects resulting from product application.
Volunteers were asked to keep a record and report any side effects, such as dryness, burning sensation, peeling of the skin, redness or any other visible changes, and report immediately to study director.

[6] = tested on: healthy female volunteers, crow's feet area around the eyes; assay: Anti wrinkle test: silicone imprints, skin roughness
From the text: Ten healthy female volunteers were included and completed the study.
Silicon imprints were taken from the crow's feet area around the eyes at both treated and control sides at each time point.
A cosmetic anti wrinkle product MW-001 was applied on half of the face for four weeks by each volunteer while the other half served as a control, without any product application during the whole test period.
A computer program draws a realistic density three-dimensional image of the relief of the skin on a colour screen for a particular density of points selected for x and y axes and then the measurements data stored in the computer are processed and then evaluated.
This analysis consists of the following steps:
1. Generation of a roughness profile from the surface relief by alignment and filtering. 2. Calculation of standardized roughness parameters DIN 4768 ff). […].
A statistical comparison between the results at T0 and at T1 was made according to the Wilcoxon signed-ranks test, a very sensitive paired-samples non-parametric test for small groups with unknown distribution, where p<0.05 indicates a significant difference. The software used was SPSS 14.

[7] = tested on: healthy female volunteers; assay: Anti wrinkle test: side effects; conditions: facial use for 4 weeks
From the text: Volunteers were asked to report side effects, such as dryness, burning sensation, peeling of the skin, redness, etc. immediately to the study director.

[8] = after 1 and 2 weeks of treatment, only at the treated area
[9] = after 2 weeks of treatment, both sides
[10] = treated area, T0 baseline, scale 0-5
[11] = treated area, T1 after one week, scale 0-5
[12] = treated area, T2 after two weeks, scale 0-5
[13] = treated area, after 1 week of treatment
[14] = any of the sides, whole study period, p>0.05
[15] = treatment area, after 4 weeks, p<0.05

CCC=CCC=CCC=CCC=CCC=CCC=CCCC(=O)N1CC(O)CC1C(=O)O (stereo in doubt) [MW-001]
Scale level, statistical analysis of change [1, 8]: decreased significantly | Dryness level, statistical analysis of change [1, 9]: decreased significantly | Redness level, statistical analysis of change [1, 9]: decreased significantly | Lichenification level, statistical analysis of change ([1]; after 2 weeks of treatment, only at the treated area): decreased significantly | Overall efficacy conclusion ([1]; atopic dermatitis): very efficient in the treatment of atopic dermatitis | Dryness level [1, 10]: 4.1 | Lichenification level [1, 10]: 2.8 | Redness level [1, 10]: 3.9 | Scale level [1, 10]: 2.6 | Infected area size ([1]; treated area, T0 baseline, scale 0-5, 10 volunteers): 4.3 | Dryness level [1, 11]: 1.8 | Infected area size [1, 11]: 3.2 | Lichenification level [1, 11]: 2.0 | Redness level [1, 11]: 2.4 | Scale level [1, 11]: 1.3 | Dryness level [1, 12]: 1.1 | Infected area size [1, 12]: 2.2 | Lichenification level [1, 12]: 1.3 | Redness level [1, 12]: 2.3 | Scale level [1, 12]: 0.9 | Dryness level, statistical analysis of change [1, 13]: decreased significantly | Redness level, statistical analysis of change [1, 13]: decreased significantly | Infected area size, statistical analysis of change ([1]; treated area, after 2 weeks of treatment, p<0.05, Wilcoxon): diminished significantly | Pruritus level, statistical analysis of change [2, 8]: decreased significantly | Change in Pruritus level ([2]; Baseline): 100% | Pruritus level ([2]; T0 baseline): 3.4 | Pruritus level ([2]; T1 after one week): 1.4 | Pruritus level ([2]; T2 after two weeks): 0.9 | Change in Pruritus level ([2]; Week 1, relative to baseline): 41% | Change in Pruritus level ([2]; Week 2, relative to baseline): 26% | Overall efficacy conclusion [3]: efficient in the treatment of psoriasis | Lesion area size, statistical analysis of decrease ([3]; after 4 weeks of application): insignificant | Scale parameter, treatment side versus control side ([3]; after both 2 weeks (T1) and 4 weeks (T2)): Significant differences | Redness parameter, statistical analysis of change [3, 14]: No significant change | Redness level ([3]; T0 baseline, scale 0-5): 3.3 | Scale level ([3]; T0 baseline, scale 0-5): 4.5 | Thickness of the Skin ([3]; T0 baseline, scale 0-5): 3.0 | Infected area size ([3]; T0 baseline, scale 0-5, 15 volunteers): 4.1 | Infected area size ([3]; T1 after two weeks, scale 0-5): 3.8 | Redness level ([3]; T1 after two weeks, scale 0-5): 3.5 | Scale level ([3]; T1 after two weeks, scale 0-5): 4.1 | Thickness of the Skin ([3]; T1 after two weeks, scale 0-5): 2.6 | Infected area size ([3]; T2 after four weeks, scale 0-5): 3.9 | Redness level ([3]; T2 after four weeks, scale 0-5): 3.2 | Scale level ([3]; T2 after four weeks, scale 0-5): 3.8 | Thickness of the Skin ([3]; T2 after four weeks, scale 0-5): 2.4 | Lesion area size, statistical analysis of change ([3]; treatment area, after 2 weeks of application): significant decrease | Scales parameter, statistical analysis of change [3, 15]: significant improvement | Thickness parameter, statistical analysis of change [3, 15]: significant improvement | Pruritus level, statistical analysis of change [4, 14]: No significant change | Pruritus level ([4]; T0 baseline): 2.1 | Pruritus level ([4]; T1 after two weeks): 1.6 | Pruritus level ([4]; T2 after four weeks): 1.3 | Side effects / safety [5]: No side effects were observed; also recorded: safe for use | Overall efficacy conclusion ([6]; rough and wrinkled skin): efficient for the treatment of rough and wrinkled skin | Decrease of skin roughness ([6]; treated area, before versus after 2 weeks of use): 10.8% | Decrease of skin roughness ([6]; treated area, before versus after 4 weeks of use): 19.5% | Skin roughness improvement, statistical analysis ([6]; treated area, both T1 and T2, p<0.05): significant | Side effects / safety [7]: None of the volunteers reported of any side effects; also recorded: safe for use
